The record followed here is the supplement of paper PMC8967900.
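Further: ALL cell lines in 384-well plates, five doses spanning 10,000-fold, each plate scaled between vehicle and 100 µmol/L benzalkonium chloride controls, sDSS an adapted area-under-curve metric.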

For one assay, the system named is HPB-ALL. The assay can be described thus: selective drug sensitivity score (sDSS, relative to normal bone marrow) (sDSS (score)); higher = more potent and effective on the cell line relative to normal bone marrow cells. The conditions noted are these: 72 h.
On to `CC(C)Oc1ccc(-c2nn([C@@H](C)c3oc4ccc(F)cc4c(=O)c3-c3cccc(F)c3)c3ncnc(N)c23)cc1F` [TGR-1202] (top concentration 2500 nM), for which the “selective drug sensitivity score” value was -2.56.
For the compound `CN(C(=O)c1ccc(F)cc1C(F)(F)F)C1CCN(c2nnc(-c3ccnn3C)c3ccccc23)CC1` [Taladegib] (top concentration 10000 nM), the “selective drug sensitivity score” value was found to be 7.08.
The same measure, in the same setting: the figure for `COc1cc(Nc2ncc(F)c(Nc3ccc4c(n3)NC(=O)C(C)(C)O4)n2)cc(OC)c1OC` [Tamatinib] (top concentration 10000 nM) is -5.42; for `Nc1cc(F)ccc1NC(=O)c1ccc(CNC(=O)/C=C/c2cccnc2)cc1` [Tucidinostat] (top concentration 10000 nM) it is 3.44.
Still for that read-out and setting: the figure for `CN[C@@H]1C[C@H]2O[C@@](C)([C@@H]1OC)n1c3ccccc3c3c4c(c5c6ccccc6n2c5c31)C(=O)N[C@H]4O` [UCN-01] (top concentration 10000 nM) is 6.04; for `CC(C)Nc1cc(-c2c[nH]c(C(=O)N[C@H](CO)c3cccc(Cl)c3)c2)c(Cl)cn1` [Ulixertinib] (top concentration 10000 nM) it is -2.68.
Same read-out and setting: the figure for `Cn1ncc(Cl)c1-c1cc(C(=O)N[C@H](CN)Cc2ccc(F)c(F)c2)oc1Cl` [Uprosertib] (top concentration 10000 nM) is -1.4; for `C=CC(=O)N1CC/C(=C\c2ccc(F)c([N+](=O)[O-])c2)C(=O)/C(=C/c2ccc(F)c([N+](=O)[O-])c2)C1` [VLX1570] (top concentration 10000 nM) it is -1.22.
For the compound `C[C@@H]1COC(Nc2ccc3ncnc(Nc4ccc(OCc5nccs5)c(Cl)c4)c3c2)=N1` [Varlitinib] (top concentration 10000 nM), the “selective drug sensitivity score” value amounted to 1.92.
Still for that read-out and setting: the figure for `CNC(=O)c1cccc(-c2ccc3c(N4CCOC[C@@H]4C)nc(N4CCOC[C@@H]4C)nc3n2)c1` [Vistusertib] (top concentration 10000 nM) is 1.12.

The subject of another assay is SUP-B15. The assay is described as above. Particulars: 72 h.
For the compound `CC(C)Oc1ccc(-c2nn([C@@H](C)c3oc4ccc(F)cc4c(=O)c3-c3cccc(F)c3)c3ncnc(N)c23)cc1F` [TGR-1202] (top concentration 2500 nM), the “selective drug sensitivity score” value is 1.14.
Regarding `CN(C(=O)c1ccc(F)cc1C(F)(F)F)C1CCN(c2nnc(-c3ccnn3C)c3ccccc23)CC1` [Taladegib] (top concentration 10000 nM), the “selective drug sensitivity score” value turned out to be 3.78.
On the same count and under the same terms, the value for `COc1cc(Nc2ncc(F)c(Nc3ccc4c(n3)NC(=O)C(C)(C)O4)n2)cc(OC)c1OC` [Tamatinib] (top concentration 10000 nM) was -0.62; that for `Nc1cc(F)ccc1NC(=O)c1ccc(CNC(=O)/C=C/c2cccnc2)cc1` [Tucidinostat] (top concentration 10000 nM) was 5.34; that for `CN[C@@H]1C[C@H]2O[C@@](C)([C@@H]1OC)n1c3ccccc3c3c4c(c5c6ccccc6n2c5c31)C(=O)N[C@H]4O` [UCN-01] (top concentration 10000 nM) was 2.64.
Regarding `CC(C)Nc1cc(-c2c[nH]c(C(=O)N[C@H](CO)c3cccc(Cl)c3)c2)c(Cl)cn1` [Ulixertinib] (top concentration 10000 nM), the “selective drug sensitivity score” value was 6.62.
Consider `Cn1ncc(Cl)c1-c1cc(C(=O)N[C@H](CN)Cc2ccc(F)c(F)c2)oc1Cl` [Uprosertib] (top concentration 10000 nM), for which the “selective drug sensitivity score” value is -1.4.
Same read-out and setting: the value for `C=CC(=O)N1CC/C(=C\c2ccc(F)c([N+](=O)[O-])c2)C(=O)/C(=C/c2ccc(F)c([N+](=O)[O-])c2)C1` [VLX1570] (top concentration 10000 nM) was 1.38.
Still for that read-out and setting: the figure for `C[C@@H]1COC(Nc2ccc3ncnc(Nc4ccc(OCc5nccs5)c(Cl)c4)c3c2)=N1` [Varlitinib] (top concentration 10000 nM) is 6.82.
The same measure, in the same setting: the value for `CNC(=O)c1cccc(-c2ccc3c(N4CCOC[C@@H]4C)nc(N4CCOC[C@@H]4C)nc3n2)c1` [Vistusertib] (top concentration 10000 nM) was 10.7.

A further assay relates to MN-60. Described as above. Particulars: 72 h.
Turning to `CC(C)Oc1ccc(-c2nn([C@@H](C)c3oc4ccc(F)cc4c(=O)c3-c3cccc(F)c3)c3ncnc(N)c23)cc1F` [TGR-1202] (top concentration 2500 nM), the “selective drug sensitivity score” value is -2.56.
For `CN(C(=O)c1ccc(F)cc1C(F)(F)F)C1CCN(c2nnc(-c3ccnn3C)c3ccccc23)CC1` [Taladegib] (top concentration 10000 nM), the “selective drug sensitivity score” value was -1.12.
Consider `COc1cc(Nc2ncc(F)c(Nc3ccc4c(n3)NC(=O)C(C)(C)O4)n2)cc(OC)c1OC` [Tamatinib] (top concentration 10000 nM), for which the “selective drug sensitivity score” value was -5.42.
Still for that read-out and setting: the figure for `Nc1cc(F)ccc1NC(=O)c1ccc(CNC(=O)/C=C/c2cccnc2)cc1` [Tucidinostat] (top concentration 10000 nM) is 1.54.
With `CN[C@@H]1C[C@H]2O[C@@](C)([C@@H]1OC)n1c3ccccc3c3c4c(c5c6ccccc6n2c5c31)C(=O)N[C@H]4O` [UCN-01] (top concentration 10000 nM), the “selective drug sensitivity score” value was determined as 0.94.
On the same count and under the same terms, the figure for `CC(C)Nc1cc(-c2c[nH]c(C(=O)N[C@H](CO)c3cccc(Cl)c3)c2)c(Cl)cn1` [Ulixertinib] (top concentration 10000 nM) is -4.38; for `Cn1ncc(Cl)c1-c1cc(C(=O)N[C@H](CN)Cc2ccc(F)c(F)c2)oc1Cl` [Uprosertib] (top concentration 10000 nM) it is -1.4; for `C=CC(=O)N1CC/C(=C\c2ccc(F)c([N+](=O)[O-])c2)C(=O)/C(=C/c2ccc(F)c([N+](=O)[O-])c2)C1` [VLX1570] (top concentration 10000 nM) it is -5.32.
Consider `C[C@@H]1COC(Nc2ccc3ncnc(Nc4ccc(OCc5nccs5)c(Cl)c4)c3c2)=N1` [Varlitinib] (top concentration 10000 nM), for which the “selective drug sensitivity score” value is 0.02.
Same read-out and setting: the value for `CNC(=O)c1cccc(-c2ccc3c(N4CCOC[C@@H]4C)nc(N4CCOC[C@@H]4C)nc3n2)c1` [Vistusertib] (top concentration 10000 nM) was 2.72.

The subject of the next assay is PF-382. The assay is described as above. The conditions noted are these: 72 h.
As for `CC(C)Oc1ccc(-c2nn([C@@H](C)c3oc4ccc(F)cc4c(=O)c3-c3cccc(F)c3)c3ncnc(N)c23)cc1F` [TGR-1202] (top concentration 2500 nM), the “selective drug sensitivity score” value was -2.56.
Same read-out and setting: the value for `CN(C(=O)c1ccc(F)cc1C(F)(F)F)C1CCN(c2nnc(-c3ccnn3C)c3ccccc23)CC1` [Taladegib] (top concentration 10000 nM) was 0.78.
The same measure, in the same setting: the figure for `COc1cc(Nc2ncc(F)c(Nc3ccc4c(n3)NC(=O)C(C)(C)O4)n2)cc(OC)c1OC` [Tamatinib] (top concentration 10000 nM) is -4.32; for `Nc1cc(F)ccc1NC(=O)c1ccc(CNC(=O)/C=C/c2cccnc2)cc1` [Tucidinostat] (top concentration 10000 nM) it is 0.74.
The same measure, in the same setting: the value for `CN[C@@H]1C[C@H]2O[C@@](C)([C@@H]1OC)n1c3ccccc3c3c4c(c5c6ccccc6n2c5c31)C(=O)N[C@H]4O` [UCN-01] (top concentration 10000 nM) was 5.44; that for `CC(C)Nc1cc(-c2c[nH]c(C(=O)N[C@H](CO)c3cccc(Cl)c3)c2)c(Cl)cn1` [Ulixertinib] (top concentration 10000 nM) was -0.28; that for `Cn1ncc(Cl)c1-c1cc(C(=O)N[C@H](CN)Cc2ccc(F)c(F)c2)oc1Cl` [Uprosertib] (top concentration 10000 nM) was 4.6.
As to `C=CC(=O)N1CC/C(=C\c2ccc(F)c([N+](=O)[O-])c2)C(=O)/C(=C/c2ccc(F)c([N+](=O)[O-])c2)C1` [VLX1570] (top concentration 10000 nM), the “selective drug sensitivity score” value was -1.72.
Same read-out and setting: the value for `C[C@@H]1COC(Nc2ccc3ncnc(Nc4ccc(OCc5nccs5)c(Cl)c4)c3c2)=N1` [Varlitinib] (top concentration 10000 nM) was -0.18; that for `CNC(=O)c1cccc(-c2ccc3c(N4CCOC[C@@H]4C)nc(N4CCOC[C@@H]4C)nc3n2)c1` [Vistusertib] (top concentration 10000 nM) was 7.02.

The next assay concerns COG-LL-317. The assay is described as above. The conditions noted are these: 72 h.
On to `CC(C)Oc1ccc(-c2nn([C@@H](C)c3oc4ccc(F)cc4c(=O)c3-c3cccc(F)c3)c3ncnc(N)c23)cc1F` [TGR-1202] (top concentration 2500 nM), for which the “selective drug sensitivity score” value was -2.56.
For `CN(C(=O)c1ccc(F)cc1C(F)(F)F)C1CCN(c2nnc(-c3ccnn3C)c3ccccc23)CC1` [Taladegib] (top concentration 10000 nM), the “selective drug sensitivity score” value was -1.12.
As to `COc1cc(Nc2ncc(F)c(Nc3ccc4c(n3)NC(=O)C(C)(C)O4)n2)cc(OC)c1OC` [Tamatinib] (top concentration 10000 nM), the “selective drug sensitivity score” value is -5.42.
On the same count and under the same terms, the figure for `Nc1cc(F)ccc1NC(=O)c1ccc(CNC(=O)/C=C/c2cccnc2)cc1` [Tucidinostat] (top concentration 10000 nM) is 2.74; for `CN[C@@H]1C[C@H]2O[C@@](C)([C@@H]1OC)n1c3ccccc3c3c4c(c5c6ccccc6n2c5c31)C(=O)N[C@H]4O` [UCN-01] (top concentration 10000 nM) it is 11.8; for `CC(C)Nc1cc(-c2c[nH]c(C(=O)N[C@H](CO)c3cccc(Cl)c3)c2)c(Cl)cn1` [Ulixertinib] (top concentration 10000 nM) it is -4.38.
The same measure, in the same setting: the figure for `Cn1ncc(Cl)c1-c1cc(C(=O)N[C@H](CN)Cc2ccc(F)c(F)c2)oc1Cl` [Uprosertib] (top concentration 10000 nM) is 18.8; for `C=CC(=O)N1CC/C(=C\c2ccc(F)c([N+](=O)[O-])c2)C(=O)/C(=C/c2ccc(F)c([N+](=O)[O-])c2)C1` [VLX1570] (top concentration 10000 nM) it is 2.78.
Same read-out and setting: the figure for `C[C@@H]1COC(Nc2ccc3ncnc(Nc4ccc(OCc5nccs5)c(Cl)c4)c3c2)=N1` [Varlitinib] (top concentration 10000 nM) is -0.18; for `CNC(=O)c1cccc(-c2ccc3c(N4CCOC[C@@H]4C)nc(N4CCOC[C@@H]4C)nc3n2)c1` [Vistusertib] (top concentration 10000 nM) it is 2.12.
